In patent US20060229433A1, “Modified antiviral peptides with increased activity and cell membrane affinity” (priority 2003, published 2006) one finds toxicity on cells data, which are given here for one compound.

For this data set, the system named is C8166 cells. Briefly: Toxicity on C8166 cells (daily cell count, trypan-blue exclusion). It counts as cell-based. Particulars: at doses up to 10 μM. The protocol:
Samples of 3×10^5/100 μL C8166 cells were preincubated in 96-well microtiter plates in culture medium containing various concentrations of peptide. After a 1 h treatment at 37° C., 100 μl of diluted viral solution of HIV-1 was added. The cells were exposed to the virus for 1 h at 37° C. at a multiplicity of infection of 1000 TCID50 per ml. The cells were washed three times and cultured at 3×10^5/ml of R10 with the treatment in 24-well plates incubated at 37° C. C8166 culture medium was replaced at Day-4 post-infection. The treatment was permanent before virus adsorption, during virus adsorption and after infection. Assays on C8166 cells have been performed at least twice and in duplicate. Toxicity was evaluated by daily cell count and trypan-blue exclusion assay. Infection of C8166 T-cells with HIV-1 was assessed by virus-induced cytopathic effects (syncytia formation) and by quantification of cell free p24 viral protein in the culture supernatants. Measurements of HIV-1 p24^gag concentration in the culture supernatants were achieved by ELISA (ALLIANCE® HIV-1 p24 kit, Perkin Elmer, life sciences, USA).

For `C[C@H](NC(=O)[C@H](CCCNC(=N)N)NC(=O)CNC(=O)[C@@H]1CCCN1C(=O)CN)C(=O)N[C@@H](Cc1ccccc1)C(=O)NCCCC[C@H](NC(=O)[C@H](Cc1ccccc1)NC(=O)[C@H](C)NC(=O)[C@H](CCCNC(=N)N)NC(=O)CNC(=O)[C@@H]1CCCN1C(=O)CN)C(=O)NCCCC[C@H](NC(=O)[C@H](CCCCNC(=O)[C@H](Cc1ccccc1)NC(=O)[C@H](C)NC(=O)[C@H](CCCNC(=N)N)NC(=O)CNC(=O)[C@@H]1CCCN1C(=O)CN)NC(=O)[C@H](Cc1ccccc1)NC(=O)[C@H](C)NC(=O)[C@H](CCCNC(=N)N)NC(=O)CNC(=O)[C@@H]1CCCN1C(=O)CN)C(=O)NCCCC[C@H](NC(=O)[C@H](CCCCNC(=O)[C@H](CCCCNC(=O)[C@H](Cc1ccccc1)NC(=O)[C@H](C)NC(=O)[C@H](CCCNC(=N)N)NC(=O)CNC(=O)[C@@H]1CCCN1C(=O)CN)NC(=O)[C@H](Cc1ccccc1)NC(=O)[C@H](C)NC(=O)[C@H](CCCNC(=N)N)NC(=O)CNC(=O)[C@@H]1CCCN1C(=O)CN)NC(=O)[C@H](CCCCNC(=O)[C@H](Cc1ccccc1)NC(=O)[C@H](C)NC(=O)[C@H](CCCNC(=N)N)NC(=O)CNC(=O)[C@@H]1CCCN1C(=O)CN)NC(=O)[C@H](Cc1ccccc1)NC(=O)[C@H](C)NC(=O)[C@H](CCCNC(=N)N)NC(=O)CNC(=O)[C@@H]1CCCN1C(=O)CN)C(=O)NCCCC(=O)O` [S6, SPC3-(γ-aminobutyric acid)], the toxicity on cells result is on record as “no toxicity”.
